Results from patent US20140227173A1, “CANCER TREATMENT WITH GAMMA-SECRETASE INHIBITORS” (The Johns Hopkins University, priority 2006, published 2014).
Entries after “also recorded” stand apart in the source; their conditions may differ.

What was measured:
Assay type in all cases: cell-based
DAOY [1] = experiment: Flow cytometric analysis of the cell cycle; conditions: 2 μM
From the text: (§1) Double immunolabeling, using antibodies specific for nestin and for Ki67, a marker of proliferating cells, was used to determine effects of Notch pathway blockade on the cell cycle. […] While adult neural stem cells are generally thought to be relatively quiescent, during embryonic growth of the brain the stem cell compartment is highly proliferative. The high rate of division observed in stem-like MB cells may reflect their similarity to those in fetal germinal epithelium.
(§2) Flow cytometric analysis of S-phase fraction and cell cycle kinetics was performed using a FACSCalibur (Becton Dickinson, San Jose, Calif.) with CELL Quest, version 3.3 software (15). CD133 studies were performed using the same instrument, with antibodies from Miltenyi (Miltenyi Biotec, Auburn, Calif.) according to the manufacturer's instructions. Cells expressing levels of CD133 higher than those seen in IgG controls were considered positive. For analyses of side population, cells (10^6/ml) were incubated with Hoechst 33342 (3 μM, Molecular Probes, Carlsbad, Calif.) for 90 minutes at 37° C. in DMEM containing 2% FBS. Prior to analysis, cells were washed and resuspended in 2 μg/ml PI (Sigma, St. Louis, Mo.). Cells were analyzed on a LSR flow cytometer equipped with 424/44 nm band pass and 670 nm long pass optical filters (Omega Optical, Brattleboro, Vt.). […]

PFSK [2] = experiment: Flow cytometric analysis of the cell cycle; conditions: 2 μM
From the text: as §1, §2

DAOY [3] = experiment: Flow cytometric analysis of CD133-positive fraction; conditions: 2 μM, 48 hours
From the text: (§3) The effects of Notch on the CD133-positive CSC subpopulation were first examined. Singh and colleagues have shown that only CD133-positive MB and glioblastoma cells are able to form multipotent neurosphere clones or tumor xenografts (6, 12). Another type of brain tumor, ependymoma, also appears to contain a small fraction of CD133-positive cells uniquely capable of initiating tumor xenografts (9). […] The D283Med and D425Med lines, which grow in suspension, contained higher percentages of CD133 positive cells. Sorting of DAOY cultures using magnetic beads coated with antibodies specific for CD133 generated an enriched population in which 30% of cells expressed the stem cell marker, and a negative population in which less than 1% of cells were CD133-positive. […] Thus Notch signaling appears to be especially active in CSC, raising the possibility that inhibition of this pathway may target the CSC population.
(§4) The DAOY, PFSK, D283 and D425 Med cell lines were obtained from the American Type Culture Collection. The low-passage MB line MB2 was derived from a tumor resected at Johns Hopkins Hospital. For treatment studies, cell were plated and allowed to grow overnight in MEM (Invitrogen, Carlsbad, Calif.) containing 10% FBS, then media was replaced the next morning with low serum (0.5% FBS) MEM containing GSI dissolved in DMSO. RNA and protein extractions, and all cell-based assays, were performed 48 hours after drug application unless otherwise noted. All experiments with error bars were performed in triplicate and shown as mean values with standard error unless otherwise noted. Cell mass was measured using CellTITER assays according to the manufacturer's instructions (Promega, Madison, Wis.). Cell number and viability were assessed using the Guava PCA and Viacount reagent according to instructions (Guava Technologies, Heyward, Calif.). Soft agar assays were performed as previously described (15) and scored either manually after 4 weeks or using as automated reader after 6 weeks. The constitutively active Akt stable cell line was made by transfecting DAOY cells with myristolated Akt (pCB6-IMy-Akt-HA) or control (pCB6+) plasmids (kind gifts from Susan J. Baker) and selecting and maintaining clones in 0.8 mg/ml G418. Soft agar assays were performed as previously described, with colonies counted using an automated reader (15).
(§5) Flow cytometric analysis of S-phase fraction and cell cycle kinetics was performed using a FACSCalibur (Becton Dickinson, San Jose, Calif.) with CELL Quest, version 3.3 software (15). CD133 studies were performed using the same instrument, with antibodies from Miltenyi (Miltenyi Biotec, Auburn, Calif.) according to the manufacturer's instructions. Cells expressing levels of CD133 higher than those seen in IgG controls were considered positive. For analyses of side population, cells (10^6/ml) were incubated with Hoechst 33342 (3 μM, Molecular Probes, Carlsbad, Calif.) for 90 minutes at 37° C. in DMEM containing 2% FBS. Prior to analysis, cells were washed and resuspended in 2 μg/ml PI (Sigma, St. Louis, Mo.). Cells were analyzed on a LSR flow cytometer equipped with 424/44 nm band pass and 670 nm long pass optical filters (Omega Optical, Brattleboro, Vt.). To ensure proper identification of SP cells, cells were incubated as above with the addition of 50 μM verapamil (Sigma).

D283 = experiment: as above; conditions: 2 μM
From the text: as §3, §4, §5

D425 = experiment: as above; conditions: 2 μM
From the text: as §3, §4, §5

PFSK [4] = experiment: as above; conditions: 2 μM, p<0.01
From the text: as §3, §4, §5

[5] = tested on: GBM neurosphere line HSR-GBM1a; experiment: CD133 expression in GBM neurosphere culture; conditions: 2 μM
Experimental: (A, B) CD133 is expressed in GBM neurosphere line HSR-GBM1a. (C) The total cell number was decreased upon GSI-18 treatment for 48 h in this line and in the subclones of the line. […] (E) Protein expression of Hes1, a Notch pathway target gene, was reduced upon GSI-18 treatment in GBM neurosphere cells.
It has been shown that the Notch signaling pathway regulates normal stem cells in the Central Neural System (CNS), and that GBMs contain cancer stem cells (CSCs) with higher Notch activity (Cancer Research, 64:7011-21, 2004; Cancer Cell, 9:391-403, 2006). However, it has not been known if Notch pathway blockade could target CSCs in GBM. […] In the present study, we used GBM neurospheres to examine the effects of Notch pathway blockade in GBM. […] Furthermore, overexpression of an active form of Notch2 (NICD2) increases tumor growth in vitro.

[6] = tested on: DAOY expressing activated Akt; experiment: Apoptosis and growth in DAOY subclones expressing constitutively active Akt
Experimental: (A) Increase of cleaved Caspase 3 and loss of Akt phosphorylation is induced by 0.4 uMor higher levels of GSI-18, while overall levels of Akt and GAPDH are unchanged in DAOY medulloblastoma cells. (B) Cell death in 2 uM GSI-18 is reduced in a representative subclone of DAOY expressing activated Akt as compare to vector transfected cells. (C) Loss of Akt phosphorylation and activation of Caspase3 cleavage is induced by 2 μM or higher levels of GSI-18, while overall levels of Akt and GAPDH are unchanged in GBM neurosphere cells.
It has previously been shown that Akt is a critical effector of Notch-regulated survival and growth outside the brain (26, 27). Therefore, it was examined whether Akt was also a mediator of the pro-survival and pro-growth effects of Notch in brain tumors. GSI-18 blocks the phosphorylation of Akt required for its activation at concentrations as low as 0.4 μM (FIG. 7F). […] Thus the pro-survival effects of Notch signaling in MB appear to be mediated at least in part by Akt.
as §4, with “All experiments with error bars were performed in triplicate and shown as mean values with standard error unless otherwise noted.” left out, “The constitutively active Akt stable cell line was made by transfecting DAOY cells with myristolated Akt (pCB6-IMy-Akt-HA) or control (pCB6+) plasmids (kind gifts from Susan J. Baker) and selecting and maintaining clones in 0.8 mg/ml G418.” left out

O=S(=O)(NC1C2CCC1Cc1ccccc1C2)c1cccs1 (stereo not drawn) [GSI-18, [11-endo]-N-(5,6,7,8,9,10-hexahydro-6,9-methanobenzo[α][8]annulen-11-yl)-thiophene-2-sulfonamide]
G1/G0, S phase and G2/M cell fractions (DAOY [1]): increased the G1/G0 cell fraction and decreased the S phase and G2/M fractions | G1/G0, S phase and G2/M cell fractions (PFSK [2]): increased the G1/G0 cell fraction and decreased the S phase and G2/M fractions | fold reduction of CD133-positive stem-like fraction (DAOY [3]; p<0.01): 3 fold | CD133-positive stem-like fraction after treatment (DAOY [3]; untreated 9.9%): 3.3% | decrease in the percentage of CD133-positive cells (D283): less pronounced | decrease in the percentage of CD133-positive cells (D425): less pronounced | fold reduction in the percentage of CD133-positive cells (PFSK [4]): 4.8 fold | CD133 expression in the whole culture [5]: significantly reduced; also recorded: reduces expression of CD133 | cell death vs vector transfected cells ([6]; 2 uM, representative subclone of DAOY expressing activated Akt): reduced | apoptotic rate on exposure ([6]; MB cells stably transfected with constitutively active Akt, 2 μM): not significantly increased | inhibition of cell growth in Akt-transfected subclones ([6]; two DAOY subclones with constitutively active Akt, data not shown): partially rescued
